Reference: ChEMBL document CHEMBL5500393, “Discovery and Optimization of Novel SaFabI Inhibitors as Specific Therapeutic Agents for MRSA Infection” (J Med Chem, 2024)
Values after ≈ are worked out from the molar mass of the structure shown. Active and inactive are the calls of the source. No cut-off for these calls is given here.

Columns and labels:
[1] = Cytotoxicity against HEK293 cells assessed as survival rate at 400 uM measured after 48 hrs by CCK-8 method relative to control; type: toxicity, cell-based; details: human, read-out: Survival
[2] = Inhibition of N-terminal his 6 tagged Escherichia coli Fabi (1 to 789 residues) expressed in Escherichia coli BL21 incubated for 30 mins in presence of NADH by fluorescence based microplate reader analysis
[3] = Acute toxicity in female BALB/c mouse assessed as effect on liver at 800 mg/kg, po measured after 14 days by H and E staining based analysis; type: organism-based; details: in vivo, 336 h, time 14 day
Acinetobacter baumannii = test: Antimicrobial activity against Acinetobacter baumannii ATCC19606 measured after 24 hrs by CLSI protocol based microdilution method; type: functional
Cell membrane [4] = test: Induction of cell membrane permeability in methicillin-resistant Staphylococcus aureus ATCC33591 assessed as fold increase in fluorescence intensity at 0.5 times MIC measured after 30 mins by Annexin V-FITC staining based analysis; type: cell membranes
Escherichia coli = test: Antimicrobial activity against Escherichia coli ATCC25922 measured after 24 hrs by CLSI protocol based microdilution method; type: functional
[5] = target: T1, Enoyl-[acyl-carrier-protein] reductase [NADPH] FabI (Staphylococcus aureus) (UniProt Q6GI75); test: Inhibition of N-terminal his 6 tagged Staphylococcus aureus Fabi (1 to […] residues) expressed in Escherichia coli BL21 at 10 uM incubated for 30 mins in presence of NADPH by fluorescence based microplate reader analysis relative to control
T1 sequence (whole entry): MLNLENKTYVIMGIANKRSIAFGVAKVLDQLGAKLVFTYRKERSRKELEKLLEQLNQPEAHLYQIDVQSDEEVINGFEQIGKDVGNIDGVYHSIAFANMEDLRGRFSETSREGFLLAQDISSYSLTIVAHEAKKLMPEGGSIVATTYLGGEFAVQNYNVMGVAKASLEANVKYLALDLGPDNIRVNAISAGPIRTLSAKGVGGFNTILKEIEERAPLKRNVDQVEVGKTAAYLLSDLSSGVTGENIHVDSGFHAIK

[6] = Acute toxicity in female BALB/c mouse assessed as effect on lung at 800 mg/kg, po measured after 14 days by H and E staining based analysis; type: organism-based; details: in vivo, 336 h, time 14 day
[7] = target: T2, Enoyl-[acyl-carrier-protein] reductase [NADPH] FabI (Staphylococcus aureus, UniProt Q6GI75); test: Inhibition of N-terminal his 6 tagged Staphylococcus aureus Fabi (1 to […] residues) expressed in Escherichia coli BL21 incubated for 30 mins in presence of NADPH by fluorescence based microplate reader analysis
T2 sequence (Q6GI75 whole entry): T1 sequence (whole entry)

[8] = Acute toxicity in female BALB/c mouse assessed as effect on spleen at 800 mg/kg, po measured after 14 days by H and E staining based analysis; type: organism-based; details: in vivo, 336 h, time 14 day
[9] = Clearance in female Sprague-Dawley rat at 5 mg/kg, iv measured upto 24 hrs by LC-MS analysis; type: ADME, organism-based; details: in vivo
[10] = Acute toxicity in female BALB/c mouse assessed as abnormal behaviour at 800 mg/kg, po measured after 14 days; type: organism-based; details: in vivo, 336 h, time 14 day
[11] = Metabolic stability in human liver microsomes assessed as half life at 1 uM measured upto 120 mins in presence of NADPH by LC-MS analysis; type: ADME, Microsome
Staphylococcus aureus [12] = test: Antimicrobial activity against […] Staphylococcus aureus ATCC33591 assessed as reduction in lipid content at 8 times MIC measured after 4 hrs by microplate reader based analysis; type: functional, organism-based
Staphylococcus aureus [13] = test: Antimicrobial activity against wild type Staphylococcus aureus RN4220 measured after 24 hrs by CLSI protocol based microdilution method; type: functional
Staphylococcus aureus [14] = test: Bactericidal activity against […] Staphylococcus aureus ATCC33591 assessed as log reduction in bacterial count at 2 times MIC measured within 8 to 12 hrs by time-kill assay; type: functional; details: time 8-12 hrs
Enterococcus faecium = test: Antimicrobial activity against Enterococcus faecium ATCC19434 measured after 24 hrs by CLSI protocol based microdilution method; type: functional
[15] = AUC (0 to t) in female Sprague-Dawley rat at 5 mg/kg, iv measured upto 24 hrs by LC-MS analysis; type: ADME, organism-based; details: in vivo
[16] = Cmax in female Sprague-Dawley rat at 5 mg/kg, iv measured upto 24 hrs by LC-MS analysis; type: ADME, organism-based; details: in vivo
[17] = Inhibition of N-terminal his 6 tagged Acinetobacter baumannii Fabi (1 to 804 residues) expressed in Escherichia coli BL21 incubated for 30 mins in presence of NADH by fluorescence based microplate reader analysis
Staphylococcus aureus [18] = test: Antimicrobial activity against […] Staphylococcus aureus NRS271 measured after 24 hrs by CLSI protocol based microdilution method; type: functional
[19] = Tmax in female Sprague-Dawley rat at 20 mg/kg, po measured upto 24 hrs by LC-MS analysis; type: ADME, organism-based; details: in vivo
Cell membrane [20] = test: Induction of cell membrane permeability in methicillin-resistant Staphylococcus aureus ATCC33591 assessed as fold increase in fluorescence intensity at 0.5 times MIC measured after 30 mins by 7-AAD staining based analysis; type: cell membranes
Cell membrane [21] = test: Induction of cell membrane permeability in methicillin-resistant Staphylococcus aureus ATCC33591 assessed as increase in fluorescence measured after 30 mins by Annexin V-FITC staining based analysis; type: cell membranes
HepG2 = test: Cytotoxicity against human HepG2 cells assessed as survival rate at 400 uM measured after 48 hrs by CCK-8 method relative to control; type: functional; details: read-out: Survival
Staphylococcus aureus [22] = test: Antimicrobial activity against […] Staphylococcus aureus ATCC43300 measured after 24 hrs by CLSI protocol based microdilution method; type: functional
Staphylococcus aureus [23] = test: Antimicrobial activity against Staphylococcus aureus RN4220 harbouring pCM-sfgfp::fabi (promoter-sarA) measured after 24 hrs by CLSI protocol based microdilution method; type: functional
[24] = Metabolic stability in human liver microsomes assessed as intrinsic clearance at 1 uM measured upto 120 mins in presence of NADPH by LC-MS analysis; type: ADME, Microsome; details: read-out: CLH
[25] = Acute toxicity in female BALB/c mouse assessed as effect on UREA level in serum at 800 mg/kg, po measured after 14 days; type: organism-based; details: in vivo, 336 h, time 14 day
[26] = Acute toxicity in female BALB/c mouse assessed as animal death at 800 mg/kg, po measured after 14 days; type: organism-based; details: in vivo, 336 h, time 14 day
[27] = Acute toxicity in female BALB/c mouse assessed as effect on ALB level in serum at 800 mg/kg, po measured after 14 days; type: organism-based; details: in vivo, 336 h, time 14 day
Cell membrane [28] = test: Induction of cell membrane permeability in methicillin-resistant Staphylococcus aureus ATCC33591 assessed as fold increase in fluorescence intensity at 1 times MIC measured after 30 mins by Annexin V-FITC staining based analysis; type: cell membranes
Cell membrane [29] = test: Induction of cell membrane damage in methicillin-resistant Staphylococcus aureus ATCC33591 assessed as outflow of cytoplasmic content at 1 times MIC measured after 30 mins by TEM analysis; type: cell membranes
[30] = target: T1, Enoyl-[acyl-carrier-protein] reductase [NADPH] FabI (Staphylococcus aureus); test: Inhibition of N-terminal his 6 tagged Staphylococcus aureus Fabi (1 to […] residues) expressed in Escherichia coli BL21 at 1 uM incubated for 30 mins in presence of NADPH by fluorescence based microplate reader analysis relative to control
Staphylococcus aureus [31] = test: Antimicrobial activity against Staphylococcus aureus RN4220 harbouring pCM-sfgfp measured after 24 hrs by CLSI protocol based microdilution method; type: functional

Row | SMILES | viability at 48 h, 400 µM [1] [%] | IC50 [2] [nM] | Activity [3] | MIC (Acinetobacter baumannii) [µg/mL] | fold change (FC) (Cell membrane [4]) | MIC (Escherichia coli) [µg/mL] | inhibition [5] [%] | Activity [6] | IC50 [7] [nM] | Activity [8] | clearance [9] [mL/min/kg] | Activity [10] | half-life at 1 µM [11] [min] | Activity (Staphylococcus aureus [12]) | MIC (Staphylococcus aureus [13]) [µg/mL] | log(activity) (Staphylococcus aureus [14]) | MIC (Enterococcus faecium) [µg/mL] | AUCt [15] [µg·h/L] | Cmax [16] [µg/mL] | IC50 [17] [nM] | further results
1 | Cc1c(Br)cccc1N1CC(c2nc3ccccc3n2C)CC1=O (stereo not given) | > 70 | 35.9 | Non-Toxic | > 32 | 2.1 | > 32 | 98.7 | Non-Toxic | 174 | Non-Toxic | 26.7 | Non-Toxic | 63.6 | Active | 2 (≈ 5.2 µM) | 3.2 | > 32 | 3238.8 | 3.25 | 266 | MIC (Staphylococcus aureus [18]): 2 µg/mL (≈ 5.2 µM); Tmax [19]: 60 min; fold change (FC) (Cell membrane [20]): 1.6; Activity (Cell membrane [21]): Active; viability at 400 µM (HepG2): > 70%; MIC (Staphylococcus aureus [22]): 1 µg/mL (≈ 2.6 µM); MIC (Staphylococcus aureus [23]): > 32 µg/mL; CLint scaled at 1 µM [24]: 27.3 mL/min/kg; Activity [25]: Non-Toxic; Activity [26]: Non-Toxic; Activity [27]: Non-Toxic; fold change (FC) (Cell membrane [28]): 2.6; Activity (Cell membrane [29]): Active; inhibition [30]: 88.9%; MIC (Staphylococcus aureus [31]): 2 µg/mL (≈ 5.2 µM)
2 | COc1c(Br)cccc1N1CC(c2nc3ccccc3n2C)CC1=O (stereo not given) | > 70 | 35.9 | Non-Toxic | > 32 | 1.9 | > 32 | 99.3 | Non-Toxic | 199 | Non-Toxic | 36.7 | Non-Toxic | 38.3 | Active | 2 (≈ 5 µM) | 2.3 | > 32 | 2264.4 | 2.72 | 266 | MIC (Staphylococcus aureus [18]): 2 µg/mL (≈ 5 µM); Tmax [19]: 30 min; fold change (FC) (Cell membrane [20]): 1.5; Activity (Cell membrane [21]): Active; viability at 400 µM (HepG2): > 70%; MIC (Staphylococcus aureus [22]): 2 µg/mL (≈ 5 µM); MIC (Staphylococcus aureus [23]): > 32 µg/mL; CLint scaled at 1 µM [24]: 45.4 mL/min/kg; Activity [25]: Non-Toxic; Activity [26]: Non-Toxic; Activity [27]: Non-Toxic; fold change (FC) (Cell membrane [28]): 2.4; Activity (Cell membrane [29]): Active; inhibition [30]: 89.6%; MIC (Staphylococcus aureus [31]): 2 µg/mL (≈ 5 µM)
